Results taken from patent publication US8653122B2, “Oromucosal formulation and process for preparing the same” (Santhera Pharmaceuticals (Switzerland) Ltd., priority 2002, dated 2014).

How the values were obtained:
[1] = Plasma levels of fipamezole in healthy male volunteers after a single 30 mg dose (oral, oromucosal tablet, oromucosal spray); type: in vivo, human; settings: for AUC(0-inf) / Cmax / Tmax: human, plasma; for AUC(0-inf) / Cmax / t1/2el: mean
Procedure: Plasma levels of fipamezole were studied in healthy male volunteers after oral administration of the drug as a solution. Blood samples for pharmcokinetic evaluation were collected for 24 hours after the drug administration. The concentration of fipamezole in plasma was measured with HPLC-MS/MS, and the pharmacokinetic parameters were calculated. The pharmacokinetics of fipamezole was evaluated with TopFit 2.0 pharmacokinetic program. The Cmax and tmax values were read from the concentration vs. time curves, and the apparent elimination phase half-lives from the terminal part of the semilogarithmic concentration vs. time curve (see FIG. 1). AUC values were calculated both to infinity and up to the last collection time with quantifiable fipamezole concentration. Mean plasma concentration time plot following single dose administration of 30 mg fipamezole via an oral, oromucosal spray and an oromucosal tablet on a semilogarithmic scale is shown in FIG. 1.

[2] = system: dogs; assay: 30-day dog toxicology study using oral dosing (cardiac safety); type: in vivo; settings: for maximum systemic fipamezole concentration: oral
Procedure: (§1) Cardiac safety was studied in dogs in a 30-day dog toxicology study using oral dosing and dog toxicology studies using buccal dosing.
In the 30-day dog toxicology study fipamezole was administered orally at doses of 1, 5, 10 and 15 mg/kg/day for 30 days, resulting in maximum systemic fipamezole concentrations of about 200, 1000, 2000 and 3300 ng/ml, respectively.

[3] = system: dogs; assay: Dog toxicology study, buccal spray, sequential dosing regimen (blood pressure, heart rate, ECG); type: in vivo
Procedure: as §1
In another toxicology study four male dogs were given fipamezole in buccal spray doses of 1, 5 and 10 mg/kg in a sequential dosing regimen with 5 to 15 days between doses. Blood pressure (systolic, diastolic and mean), heart rate and ECGs were monitored before and up to 12 hours after dosing.

[4] = system: dogs; assay: Dog toxicology study using buccal delivery for up to 4 weeks; type: in vivo; settings: for maximum systemic concentration of fipamezole: buccal, first day
Procedure: as §1
Maximum systemic concentrations of fipamezole after dosing on the first day of this study were about 800, 2000 and 3300 ng/ml.

[5] = other: oromucosal spray, oromucosal spray
[6] = other: oromucosal tablet, oromucosal tablet
[7] = buccal spray 5 and 10 mg/kg, 30 minutes after dosing

`CCC1(c2c[nH]cn2)Cc2ccc(F)cc2C1.Cl` (stereo not drawn) [fipamezole, 4-(2-ethyl-5-fluoroindan-2-yl)-1H-imidazole hydrochloride] showed an AUC(0-inf) ([1]; oral (solution)) of 7.65 ng·h/mL, a Cmax ([1]; oral (solution)) of 1.59 ng/mL and a Tmax ([1]; oral (solution), median) of 1 h. For the same compound, the AUC(0-inf) [1, 5] was 157 ng·h/mL, the Cmax [1, 5] was 49.2 ng/mL and the Tmax ([1]; other: oromucosal spray, oromucosal spray, median) was 0.7 h. For the same compound, the Tmax [1, 6] was 0.85 h, the AUC(0-inf) [1, 6] was 116 ng·h/mL and the Cmax [1, 6] was 31.7 ng/mL. It also gave a t1/2el ([1]; oral (solution)) of 3.10 h, a t1/2el ([1]; oromucosal spray) of 2.10 h and a t1/2el ([1]; oromucosal tablet) of 3.10 h. For the same compound, the “systemic concentration of fipamezole at which QT prolongation was observed” value ([2]; high oral doses, 30-day study) was “about 2000 ng/ml”, the “maximum systemic fipamezole concentration” value ([2]; 1 mg/kg/day for 30 days) was “about 200 ng/ml” and the “maximum systemic fipamezole concentration” value ([2]; 5 mg/kg/day for 30 days) was about 1000 ng/mL. For the same compound, the “maximum systemic fipamezole concentration” value ([2]; 10 mg/kg/day for 30 days) was “about 2000 ng/ml”, the “maximum systemic fipamezole concentration” value ([2]; 15 mg/kg/day for 30 days) was about 3300 ng/mL and the “ECG changes (P wave amplitude, P wave duration, P-Q interval, QRS interval or Q-T interval)” value ([3]; buccal spray 1, 5 and 10 mg/kg, each dose level, up to 12 hours after dosing) was “No ECG changes”. For the same compound, the “blood pressure (absolute values)” value [3, 7] was “significant transient increases”, the “heart rate (absolute values)” value [3, 7] was “significant transient increases” and the “changes in ECG” value ([4]; buccal delivery 1, 5 and 10 mg/kg/day for up to 4 weeks) was “no apparent changes in ECG”. For the same compound, the “maximum systemic concentration of fipamezole” value (shortened to “maximum systemic concentration”) ([4]; 1 mg/kg/day) was “about 800 ng/ml”, the “maximum systemic concentration” value ([4]; 5 mg/kg/day) was about 2000 ng/mL and the “maximum systemic concentration” value ([4]; 10 mg/kg/day) was about 3300 ng/mL.
